According to patent US20050228016A1, “TETRAHYDROQUINOLINES FOR MODULATING THE EXPRESSION OF EXOGENOUS GENES VIA AN ECDYSONE RECEPTOR COMPLEX” (priority 2002, published 2005):

Key:
[1] = target: T1, Bombyx mori EcR (VP16-BmEcR, CVBE) (Bombyx mori, UniProt P49881); assay: Z3 assay (HEK-293 clone Z3 with CVBE and 6x EcRE LacZ, β-galactosidase reporter); type: cell-based; settings: average of two wells; for Fold Induction Average, Z3V1 Assay 33 μM: 48 h
T1 construct: expressed in transfected cells
T1 sequence (P49881 86-606): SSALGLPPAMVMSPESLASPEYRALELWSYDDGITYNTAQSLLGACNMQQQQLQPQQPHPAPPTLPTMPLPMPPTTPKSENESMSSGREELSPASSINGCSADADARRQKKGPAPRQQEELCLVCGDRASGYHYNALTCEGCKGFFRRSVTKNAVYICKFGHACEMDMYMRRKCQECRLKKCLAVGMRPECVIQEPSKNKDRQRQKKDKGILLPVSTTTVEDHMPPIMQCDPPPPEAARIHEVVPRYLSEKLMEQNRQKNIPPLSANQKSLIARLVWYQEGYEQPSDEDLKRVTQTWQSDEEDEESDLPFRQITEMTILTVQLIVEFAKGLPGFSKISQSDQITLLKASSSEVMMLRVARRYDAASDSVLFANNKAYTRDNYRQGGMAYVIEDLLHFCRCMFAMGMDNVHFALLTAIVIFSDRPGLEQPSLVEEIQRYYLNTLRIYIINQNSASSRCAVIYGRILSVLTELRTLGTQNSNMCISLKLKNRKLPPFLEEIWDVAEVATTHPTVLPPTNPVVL
Text: Dr. F. Gage provided a population of stably transformed cells containing CVBE and 6× EcRE as described in (Suhr et. al. 1998). Human 293 kidney cells, also referred to as HEK-293 cells, were sequentially infected with retroviral vectors encoding first the switch construct CVBE, and subsequently the reporter construct 6× EcRE Lac Z. The switch construct contained the coding sequence for amino acids 26-546 from Bombyx nori EcR (BE) (Iatrou) inserted in frame and downstream of the VP16 transactivation domain (VBE). A synthetic ATG start codon was placed under the control of cytomegalovirus (CVBE) immediate early promoter and flanked by long terminal repeats (LTR). The reporter-construct contained six copies of the ecdysone response element (EcRE) binding site placed upstream of LacZ and flanked on both sides with LTR sequences (6× EcRE).
Dilution cloning was used to isolate individual clones. Clones were selected using 450 μg/ml G418 and 100 ng/ml puromycin. Individual clones were evaluated based on their response in the presence and absence of test ligands.
Human 293 kidney cells stably transformed with CVBE and 6× EcRE lack were maintained in Minimum Essential Medium (Mediates, 10-010-CV) containing 10%.FBS (Life Technologies, 26140-087),[…] G418 (Mediates, 30-234-CR), and […] (Sigma, P-7255), at 37° C. in an atmosphere containing 5% CO2 and were subculture when they reached 75% confluence.
Z3 cells were seeded into 96-well tissue culture plates at a concentration of 2.5×10^3 cells per well and incubated at 37° C. in 5% CO2 for twenty-four hours. Stock solutions of ligands were prepared in DMSO. Ligand stock solutions were diluted 100.fold in media and 50 μL of this diluted ligand solution (33 μM) was added to cells.
Reporter gene expression was evaluated 48 hours after treatment of cells, β-galactosidase activity was measured using Gal Screen™ bioluminescent reporter gene assay system from Tropix (GSY1000).
Flanking both constructs are long terminal repeats, G418 and puromycin are selectable markers, CMV is the cytomegalovirus promoter, VBE is coding sequence for amino acids 26-546 from Bombyx mori EcR inserted downstream of the VP16 transactivation domain, 6× EcRE is six copies of the ecdysone response element, lacZ encodes for the reporter enzyme β-galactosidase.

[2] = target: T2, Gal4DBD/AaEcR (DEF) (Aedes aegypti, UniProt P49880); assay: cell-based; type: cell-based; settings: for Fold Induction Average, AA_3T3V1 Assay 33 μM: 3T3 cells, 48 h, average of two wells
T2 construct: The wildtype D, E, and F domains from mosquito Aedes aegypti EcR; expressed in transfected cells; host or cells: 3T3 cells
Experimental: 3T3 cells were trypsinized and plated at 2.5×10^3 cells/well on a 96-well plate. After incubation for 24 h at 37° C. under 5% CO2, cells were transfected with the Gal4DBD/AaEcR (DEF) gene expression cassette and the reporter plasmid, pFRLuc, containing a 5× GAL4 response element and the firefly luciferase gene in serum free media using Superfect (Qiagen). After transfection for 4 h at 37° C., the cells were treated with ligand in serum media. […] Single dose testing was performed at 33 μM.

T2 sequence (P28704 286-520 A311G/G315S/G445S/I449V): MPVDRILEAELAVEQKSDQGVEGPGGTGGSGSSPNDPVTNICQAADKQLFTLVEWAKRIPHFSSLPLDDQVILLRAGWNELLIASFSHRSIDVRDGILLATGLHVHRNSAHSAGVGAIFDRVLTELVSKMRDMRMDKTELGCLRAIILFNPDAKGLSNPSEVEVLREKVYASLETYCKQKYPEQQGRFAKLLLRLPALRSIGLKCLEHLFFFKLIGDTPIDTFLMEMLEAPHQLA
T2 sequence (P49880 405-776): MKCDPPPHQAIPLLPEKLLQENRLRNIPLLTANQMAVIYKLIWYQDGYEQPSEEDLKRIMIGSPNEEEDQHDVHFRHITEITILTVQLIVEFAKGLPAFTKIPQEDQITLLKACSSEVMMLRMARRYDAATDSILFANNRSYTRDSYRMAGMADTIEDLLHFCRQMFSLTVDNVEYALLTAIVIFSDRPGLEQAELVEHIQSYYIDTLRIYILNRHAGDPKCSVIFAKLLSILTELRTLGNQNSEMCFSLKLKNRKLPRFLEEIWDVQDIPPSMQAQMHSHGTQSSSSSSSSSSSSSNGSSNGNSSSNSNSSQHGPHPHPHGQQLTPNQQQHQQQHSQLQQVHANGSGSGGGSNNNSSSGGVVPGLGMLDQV

Structure (SMILES) | Fold Induction Average, Z3V1 Assay 33 μM [1] [fold] | Fold Induction Average, AA_3T3V1 Assay 33 μM [2] [fold] | fold induction at 33 µM ([1]; HEK293, 48 h, read-out: Fold Induction Average, Z3V1 Assay 33 μM) | fold induction at 33 µM ([2]; NIH3T3, read-out: Fold Induction Average, AA_3T3V1 Assay 33 μM)
C[C@H]1C[C@H](Nc2ccc(F)cc2)c2cc(F)ccc2N1C(=O)c1cccc(F)c1 (relative stereo) [Compound I-77] | 153 | 272 | – | –
C[C@H]1C[C@H](Nc2ccc(F)cc2)c2cc(F)ccc2N1C(=O)c1ccccc1C(F)(F)F (relative stereo) [Compound I-78] | 3 | 33 | – | –
C[C@H]1C[C@H](Nc2ccc(F)cc2)c2cc(F)ccc2N1C(=O)c1cccc(C(F)(F)F)c1 (relative stereo) [Compound I-79] | 137 | 595 | – | –
C[C@H]1C[C@H](Nc2ccc(F)cc2)c2cc(F)ccc2N1C(=O)c1ccc(C(F)(F)F)cc1 (relative stereo) [Compound I-80] | 37 | 914 | – | –
COc1cccc(C(=O)N2c3ccccc3[C@@H](Nc3ccccc3)C[C@@H]2C)c1 (relative stereo) [Compound I-81] | 1 | 9 | – | –
Cc1ccc(C(=O)N2c3ccccc3[C@@H](Nc3ccccc3)C[C@@H]2C)cc1 (relative stereo) [Compound I-82] | 1 | 79 | – | –
COc1ccc(C(=O)N2c3ccccc3[C@@H](Nc3ccccc3)C[C@@H]2C)cc1 (relative stereo) [Compound I-83] | 8 | 345 | – | –
COC(=O)c1ccc(C(=O)N2c3ccccc3[C@@H](Nc3ccccc3)C[C@@H]2C)cc1 (relative stereo) [Compound I-84] | 3 | 508 | – | –
Cc1ccc(N[C@H]2C[C@H](C)N(C(=O)c3cccc(C)c3)c3ccc(C)cc32)cc1 (relative stereo) [Compound I-85] | 1 | 3 | – | –
Cc1ccc(N[C@H]2C[C@H](C)N(C(=O)c3ccc(C)cc3)c3ccc(C)cc32)cc1 (relative stereo) [Compound I-87] | 1 | 250 | – | –
COc1ccc(C(=O)N2c3ccc(C)cc3[C@@H](Nc3ccc(C)cc3)C[C@@H]2C)cc1 (relative stereo) [Compound I-88] | 1 | 213 | – | –
COC(=O)c1ccc(C(=O)N2c3ccc(C)cc3[C@@H](Nc3ccc(C)cc3)C[C@@H]2C)cc1 (relative stereo) [Compound I-89] | 1 | 30 | – | –
Cc1cccc(C(=O)N2c3ccc(F)cc3[C@@H](Nc3ccc(F)cc3)C[C@@H]2C)c1 (relative stereo) [Compound I-90] | 33 | 433 | – | –
COc1cccc(C(=O)N2c3ccc(F)cc3[C@@H](Nc3ccc(F)cc3)C[C@@H]2C)c1 (relative stereo) [Compound I-91] | 107 | 542 | – | –
Cc1ccc(C(=O)N2c3ccc(F)cc3[C@@H](Nc3ccc(F)cc3)C[C@@H]2C)cc1 (relative stereo) [Compound I-92] | 100 | 229 | – | –
COc1ccc(C(=O)N2c3ccc(F)cc3[C@@H](Nc3ccc(F)cc3)C[C@@H]2C)cc1 (relative stereo) [Compound I-93] | 87 | 378 | – | –
C[C@H]1C[C@H](Nc2ccccc2)c2ccccc2N1C(=O)c1ccc(C(C)(C)C)cc1 (relative stereo) [Compound I-134] | 1 | 39 | – | –

Structure (SMILES) | Fold Induction Average, Z3V1 Assay 33 μM [1] [fold] | Fold Induction Average, AA_3T3V1 Assay 33 μM [2] [fold] | fold induction at 33 µM ([1]; HEK293, 48 h, read-out: Fold Induction Average, Z3V1 Assay 33 μM) | fold induction at 33 µM ([2]; NIH3T3, read-out: Fold Induction Average, AA_3T3V1 Assay 33 μM)
COc1ccc(C(=O)N2c3ccc(C)cc3[C@@H](Nc3ccc(C)cc3)C[C@H]2C)cc1 (stereo in doubt) [Compound I-98, cis-2,6-dimethyl-1-(4-methoxybenzoyl)-4-(4-methylphenylamino)-1,2,3,4-tetrahydroquinoline] | – | – | 1 | 1
CCc1ccc(C(=O)N2c3ccc(F)cc3C(Nc3ccc(F)cc3)CC2C)cc1 (centres unmarked) [Compound I-36] | 33 | 113 | – | –
COC(=O)c1ccc(C(=O)N2c3ccc(F)cc3C(Nc3ccc(F)cc3)CC2C)cc1 (centres unmarked) [Compound I-37] | 1 | 37 | – | –
CC1CC(Nc2ccc(F)cc2)c2cc(F)ccc2N1C(=O)c1ccc2c(c1)OCO2 (centres unmarked) [Compound I-38] | 10 | 76 | – | –
COc1cccc(C(=O)N2c3ccc(C)cc3C(Nc3ccc(C)cc3)CC2C)c1C (centres unmarked) [Compound I-54] | 7 | 35 | – | –
CC1CC(Nc2ccc(F)cc2)c2cc(F)ccc2N1C(=O)c1ccccc1F (centres unmarked) [Compound I-55] | 10 | 78 | – | –
Cc1ccccc1C(=O)N1c2ccc(F)cc2C(Nc2ccc(F)cc2)CC1C (centres unmarked) [Compound I-56] | 8 | 158 | – | –
COc1ccccc1C(=O)N1c2ccc(F)cc2C(Nc2ccc(F)cc2)CC1C (centres unmarked) [Compound I-57] | 1 | 4 | – | –
CC1CC(Nc2ccccc2)c2ccccc2N1C(=O)c1ccc(Cl)cc1 (centres unmarked) [Compound I-61] | 4 | 216 | – | –
CCc1ccc(C(=O)N2c3ccccc3C(Nc3ccccc3)CC2C)cc1 (centres unmarked) [Compound I-62] | 43 | 744 | – | –
Cc1ccc(NC2CC(C)N(C(=O)c3ccc(Cl)cc3)c3ccc(C)cc32)cc1 (centres unmarked) [Compound I-63] | 1 | 812 | – | –
COc1ccc(C(=O)N2c3ccccc3C(Nc3ccccc3)CC2C)cc1 (centres unmarked) [Compound I-95] | 1 | 11 | – | –
Cc1ccc(C(=O)N2c3ccccc3C(Nc3ccccc3)CC2C)cc1 (centres unmarked) [Compound I-96] | 1 | 121 | – | –
CC1CC(Nc2ccccc2)c2ccccc2N1C(=O)c1ccccc1 (centres unmarked) [Compound I-97] | 1 | 37 | – | –
COc1ccc(C(=O)N2c3ccc(F)cc3C(Nc3ccc(F)cc3)CC2C)cc1 (centres unmarked) [Compound I-101] | 2 | 561 | – | –
Cc1ccc(C(=O)N2c3ccc(F)cc3C(Nc3ccc(F)cc3)CC2C)cc1 (centres unmarked) [Compound I-102] | 3 | 601 | – | –
CC1CC(Nc2ccccc2)c2ccccc2N1C(=O)c1ccc(Cl)nc1 (centres unmarked) [Compound I-103] | 4 | 341 | – | –
